Measured values: patent publication US20230287021A1, “COMPOUNDS, COMPOSITIONS AND METHODS FOR STABILIZING TRANSTHYRETIN AND INHIBITING TRANSTHYRETIN MISFOLDING” (Protego Biopharma, Inc., priority 2020, published 2023)
Structures can show the parent of a compound that is named as a salt.

What was measured:
[1] = In vivo rat PK: tafamidis in plasma, CSF and brain; parameters: species or system Male Sprague-Dawley (SD) rats; settings: for Tafamidis CSF/Plasma Ratio (iv): iv administration of test compound; for Tafamidis CSF/Plasma Ratio over 24 hrs (po): po administration of test compound
From the text: For a compound provided herein to be an effective TTR stabilizer drug to halt and/or prevent the ocular and cerebral TTR amyloid deposition TTR amyloidosis, it has to be able to penetrate into the brain and CSF (surrogate for eye penetration) and deliver a sufficient amount of TTR stabilizer to stop TTR dissociation. A pharmacokinetic study in rat was used to evaluate the compounds. Male Sprague-Dawley (SD) rats (200-220 g weight) were acclimated for at least 2 to 3 days before being placed on study. All animals had access to certified rodent diet and water at libitum. Appropriate amount of the test compound was accurately weighed and mixed with appropriate volume of vehicle (such as DMSO/sterile water for iv dosing or 0.5% methylcellulose homogenous suspension or solution for oral administration or as a solution in a mixture NMP/PEG400/solutol/water) to administer a dose of 2, 5 or 10 mg/kg. For IV dosing the test compound was administered via tail vein or indwelling cannula. For oral dosing, the test compound was administered by oral gavage. Blood and CSF samples were collected at selected timepoints. Blood collection was performed from saphenous vein or tail vein of each animal into polypropylene tubes at each timepoint. All blood samples were transferred into EDTA-K2 tubes and centrifuged for 15 minutes at 4° C. for plasma collection. Plasma samples were kept at -80° C. until LC/MSMS analysis. CSF was collected from cisterna magna at each timepoint and quick frozen over dry ice and kept at -80° C. until LC/MSMS analysis. Brains were harvested immediately after the terminal bleeding (~ 24 hrs post dosing). The blood of the brain was perfused with normal saline. The brain was quickly picked and placed into centrifuge tube. The weight of brain samples was recorded. 4-Fold homogenization solution (MeOH/15 mM PBS (1:2)) was added into the tube according to the weighed samples. The brain was homogenized using a Polytron (3 strokes or more until homogenous, each 30 seconds) on wet ice. The samples were quick frozen over dry ice and kept at -80° C. until LC/MSMS analysis. Using a LC-MSMS method for the quantitative determination of test compound in biological matrixes, amount of test compound and active agent were measured in plasma and CSF at selected timepoints post-dosing and in brain at 24 hrs post dosing. Plasma concentration versus time data was analyzed by non-compartmental approaches using the Phoenix WinNonlin 6.3 software program. As reference, an oral dose of 2 mg/kg of tafamidis gave a CSF to plasma ratio over 24 hrs around 0.01 and a brain to plasma ratio at 24 hrs around 0.02.

[2] = In vitro rat liver S9 stability assay, formation of tafamidis; type: in vitro ADME; settings: rat liver S9, 37° C., 1 µM test compound
Description: The test compound was added to liver S9 and incubated at 37° C. in a water bath at a concentration of 1 µM. At each time point (0, 5, 10, 20, 30 and 60 min), stop solution (tolbutamide plus labetalol) was added to precipitate protein and mixed thoroughly. After centrifugation, an aliquot of supernatant was analyzed by LC-MS/MS. The percentage of formation of active agent was calculated at each time point.

[3] = In vitro rat plasma stability assay, formation of tafamidis; type: in vitro ADME; settings: 37° C., 2 µM test compound
In short: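 Compound at 2 µM incubated in rat plasma at 37 °C, sampled at 0, 10, 30, 60, 120 min or 0, 60, 120, 180, 240 min. Protein precipitated, supernatant analyzed by LC-MS/MS, and percentage formation of tafamidis calculated per time point.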

SMILES: CC(CN(C)C)OC(=O)c1ccc2nc(-c3cc(Cl)cc(Cl)c3)oc2c1 (single isomer, unassigned) [Compound 46, (S*)-1-(dimethylamino)propan-2-yl 2-(3,5-dichlorophenyl)benzo[d]oxazole-6-carboxylate]
- Tafamidis CSF/Plasma Ratio (iv) [1]: C (C is ≥0.02)
- Tafamidis CSF/Plasma Ratio over 24 hrs (po) [1]: A (A is < 0.015)
- Formation of tafamidis at 60 min [2]: A (A is <25%)
- Formation of tafamidis at 120 min [3]: B (B is ≥25 to <50%)

SMILES: CC(CN(C)C)OC(=O)c1ccc2nc(-c3cc(Cl)cc(Cl)c3)oc2c1 (single isomer, unassigned) [Compound 47, (R*)-1-(dimethylamino)propan-2-yl 2-(3,5-dichlorophenyl)benzo [d] oxazole-6-carboxylate]
- Tafamidis CSF/Plasma Ratio over 24 hrs (po) [1]: A (A is < 0.015)
- Formation of tafamidis at 60 min [2]: A (A is <25%)
- Formation of tafamidis at 120 min [3]: D (D is ≥75%)

SMILES: CN(C)CCCOC(=O)c1ccc2nc(-c3cc(Cl)cc(Cl)c3)oc2c1 [Compound 1, 3-(Dimethylamino)propyl 2-(3,5-dichlorophenyl)benzo[d]oxazole-6-carboxylate]
- Tafamidis CSF/Plasma Ratio (iv) [1]: B (B is ≥0.015 to <0.02)
- Formation of tafamidis at 60 min [2]: A (A is <25%)
- Formation of tafamidis at 120 min [3]: A (A is <25%)

SMILES: CN1CCC(OC(=O)c2ccc3nc(-c4cc(Cl)cc(Cl)c4)oc3c2)C1 (stereo not shown) [Compound 7, 1-methylpyrrolidin-3-yl 2-(3,5-dichlorophenyl)benzo[d]oxazole-6-carboxylate]
- Tafamidis CSF/Plasma Ratio (iv) [1]: C (C is ≥0.02)
- Tafamidis CSF/Plasma Ratio over 24 hrs (po) [1]: C (C is ≥0.02)
- Formation of tafamidis at 60 min [2]: A (A is <25%)
- Formation of tafamidis at 120 min [3]: D (D is ≥75%)

SMILES: CN1CCC(OC(=O)c2ccc3nc(-c4cc(Cl)cc(Cl)c4)oc3c2)CC1 [Compound 11]
- Tafamidis CSF/Plasma Ratio (iv) [1]: B (B is ≥0.015 to <0.02)
- Tafamidis CSF/Plasma Ratio over 24 hrs (po) [1]: A (A is < 0.015)
- Formation of tafamidis at 60 min [2]: A (A is <25%)
- Formation of tafamidis at 120 min [3]: A (A is <25%)

SMILES: O=C(OC1CCNCC1)c1ccc2nc(-c3cc(Cl)cc(Cl)c3)oc2c1 [Compound 13, hydrochloride]
- Tafamidis CSF/Plasma Ratio (iv) [1]: B (B is ≥0.015 to <0.02)
- Tafamidis CSF/Plasma Ratio over 24 hrs (po) [1]: B (B is ≥0.015 to <0.02)
- Formation of tafamidis at 60 min [2]: A (A is <25%)
- Formation of tafamidis at 120 min [3]: A (A is <25%)

SMILES: CN1CCC(OC(=O)c2ccc3nc(-c4cc(Cl)cc(Cl)c4)oc3c2)C(F)(F)C1 (stereo not shown) [Compound 14, 3,3-difluoro-1-methylpiperidin-4-yl 2-(3,5-dichlorophenyl) benzo [d]oxazole-6-carboxylate]
- Tafamidis CSF/Plasma Ratio (iv) [1]: B (B is ≥0.015 to <0.02)
- Formation of tafamidis at 120 min [3]: A (A is <25%)

SMILES: N[C@@H](Cc1ccc(OC(=O)c2ccc3nc(-c4cc(Cl)cc(Cl)c4)oc3c2)cc1)C(=O)O [Compound 23, (S)-2-amino-3-(4-((2-(3,5-dichlorophenyl)benzo[d]oxazole-6-carbonyl)oxy)phenyl)propanoic acid hydrochloride]
- Tafamidis CSF/Plasma Ratio (iv) [1]: B (B is ≥0.015 to <0.02)
- Formation of tafamidis at 120 min [3]: A (A is <25%)

SMILES: N[C@@H](Cc1cccc(OC(=O)c2ccc3nc(-c4cc(Cl)cc(Cl)c4)oc3c2)c1)C(=O)O [Compound 28, (S)-2-amino-3-(3-((2-(3,5-dichlorophenyl)benzo[d]oxazole-6-carbonyl)oxy)phenyl) propanoic acid hydrochloride]
- Tafamidis CSF/Plasma Ratio (iv) [1]: A (A is <0.015)
- Formation of tafamidis at 120 min [3]: A (A is <25%)

SMILES: O=C(OCCN1CCC1)c1ccc2nc(-c3cc(Cl)cc(Cl)c3)oc2c1 [Compound 36, 2-(azetidin-1-yl)ethyl 2-(3,5-dichlorophenyl)benzo[d]oxazole-6-carboxylate]
- Tafamidis CSF/Plasma Ratio (iv) [1]: A (A is <0.015)
- Formation of tafamidis at 120 min [3]: C (C is ≥50 to <75%)

SMILES: CCN(C)CCCOC(=O)c1ccc2nc(-c3cc(Cl)cc(Cl)c3)oc2c1 [Compound 48, 3-(ethyl(methyl)amino)propyl 2-(3,5-dichlorophenyl)benzo[d] oxazole-6-carboxylate hydrochloride]
- Tafamidis CSF/Plasma Ratio (iv) [1]: A (A is <0.015)
- Formation of tafamidis at 120 min [3]: B (B is ≥25 to <50%)

SMILES: CC(CCN(C)C)OC(=O)c1ccc2nc(-c3cc(Cl)cc(Cl)c3)oc2c1 (stereo not shown) [Compound 49, 4-(dimethylamino)butan-2-yl 2-(3,5-dichlorophenyl)benzo[d] oxazole-6-carboxylate hydrochloride]
- Tafamidis CSF/Plasma Ratio (iv) [1]: C (C is ≥0.02)
- Formation of tafamidis at 120 min [3]: C (C is ≥50 to <75%)

SMILES: CC(COC(=O)c1ccc2nc(-c3cc(Cl)cc(Cl)c3)oc2c1)CN(C)C (stereo not shown) [Compound 50, 3-(dimethylamino)-2-methylpropyl 2-(3,5-dichlorophenyl) benzo [d] oxazole-6-carboxylate]
- Tafamidis CSF/Plasma Ratio (iv) [1]: A (A is <0.015)
- Formation of tafamidis at 120 min [3]: A (A is <25%)

SMILES: Cn1ccnc1COC(=O)c1ccc2nc(-c3cc(Cl)cc(Cl)c3)oc2c1 [Compound 98]
- Formation of tafamidis at 60 min [2]: D (D is ≥75%)
- Formation of tafamidis at 120 min [3]: C (C is ≥50 to <75%)

SMILES: O=C(OCCn1ccnc1)c1ccc2nc(-c3cc(Cl)cc(Cl)c3)oc2c1 [Compound 99]
- Formation of tafamidis at 60 min [2]: D (D is ≥75%)
- Formation of tafamidis at 120 min [3]: B (B is ≥25 to <50%)

SMILES: O=C(OCc1ccccn1)c1ccc2nc(-c3cc(Cl)cc(Cl)c3)oc2c1 [Compound 103]
- Formation of tafamidis at 60 min [2]: D (D is ≥75%)
- Formation of tafamidis at 120 min [3]: B (B is ≥25 to <50%)

SMILES: CN(C)[C@H]1CCC[C@@H]1OC(=O)c1ccc2nc(-c3cc(Cl)cc(Cl)c3)oc2c1 [Compound 116]
- Tafamidis CSF/Plasma Ratio over 24 hrs (po) [1]: A (A is < 0.015)
- Formation of tafamidis at 60 min [2]: A (A is <25%)

SMILES: CC(CN1CCOCC1)OC(=O)c1ccc2nc(-c3cc(Cl)cc(Cl)c3)oc2c1 (stereo not shown) [Compound 143]
- Tafamidis CSF/Plasma Ratio over 24 hrs (po) [1]: A (A is < 0.015)
- Formation of tafamidis at 60 min [2]: B (B is ≥25 to <50%)

SMILES: O=C(OC1CCc2nccn2C1)c1ccc2nc(-c3cc(Cl)cc(Cl)c3)oc2c1 (stereo not shown) [Compound 157, 5,6,7,8-tetrahydroimidazo[1,2-a]pyridin-6-yl 2-(3,5-dichlorophenyl)benzo[d]oxazole-6-carboxylate hydrochloride]
- Formation of tafamidis at 60 min [2]: A (A is <25%)
- Formation of tafamidis at 120 min [3]: B (B is ≥25 to <50%)

SMILES: CN1CC(OC(=O)c2ccc3nc(-c4cc(Cl)cc(Cl)c4)oc3c2)C(F)(F)C1 (stereo not shown) [Compound 175]
- Formation of tafamidis at 60 min [2]: D (D is ≥75%)
- Formation of tafamidis at 120 min [3]: D (D is ≥75%)

SMILES: N#CCN1CCC(OC(=O)c2ccc3nc(-c4cc(Cl)cc(Cl)c4)oc3c2)C1 (stereo not shown) [Compound 176]
- Formation of tafamidis at 60 min [2]: D (D is ≥75%)
- Formation of tafamidis at 120 min [3]: C (C is ≥50 to <75%)

SMILES: Cn1ccnc1CCOC(=O)c1ccc2nc(-c3cc(Cl)cc(Cl)c3)oc2c1 [Compound 177]
- Formation of tafamidis at 60 min [2]: D (D is ≥75%)
- Formation of tafamidis at 120 min [3]: D (D is ≥75%)

SMILES: CC(CCn1ccnc1)OC(=O)c1ccc2nc(-c3cc(Cl)cc(Cl)c3)oc2c1 (stereo not shown) [Compound 178, 4-(1H-imidazol-1-yl)butan-2-yl 2-(3,5-dichlorophenyl)-benzo [d] oxazole-6-carboxylate]
- Formation of tafamidis at 60 min [2]: C (C is ≥50 to <75%)
- Formation of tafamidis at 120 min [3]: C (C is ≥50 to <75%)

SMILES: N#CCCN1CCC(OC(=O)c2ccc3nc(-c4cc(Cl)cc(Cl)c4)oc3c2)C1 (stereo not shown) [Compound 179]
- Formation of tafamidis at 60 min [2]: C (C is ≥50 to <75%)
- Formation of tafamidis at 120 min [3]: B (B is ≥25 to <50%)

SMILES: O=C(OC1CCN2CCCC12)c1ccc2nc(-c3cc(Cl)cc(Cl)c3)oc2c1 (stereo not shown) [Compound 180, Hexahydro-1H-pyrrolizin-1-yl 2-(3,5-dichlorophenyl)benzo[d]oxazole-6-carboxylate]
- Formation of tafamidis at 60 min [2]: A (A is <25%)
- Formation of tafamidis at 120 min [3]: B (B is ≥25 to <50%)

SMILES: CCNC(=O)c1ccc2nc(-c3cc(Cl)cc(Cl)c3)oc2c1 [Compound 183]
- Formation of tafamidis at 60 min [2]: A (A is <25%)
- Formation of tafamidis at 120 min [3]: A (A is <25%)

SMILES: CC1CCC(OC(=O)c2ccc3nc(-c4cc(Cl)cc(Cl)c4)oc3c2)C1 (stereo not shown) [Compound 185]
- Formation of tafamidis at 60 min [2]: B (B is ≥25 to <50%)
- Formation of tafamidis at 120 min [3]: A (A is <25%)
